This is an account of results in patent publication US20050079232A1, “Composition for promotion of bone growth and maintenance of bone health” (priority 2001, published 2005).

Assay [1] deals with BMP-2 promoter. In words: BMP-2 luciferase assay (BMP-2 gene reporter assay, bone formation). Particulars: 10^−6M; result in words. Format: cell-based. As to the method:
BMP-2 luciferase assay—The activity of the extracts was determined using 2T3 cells containing the BMP-2 promoter operatively linked to the luciferase gene. An increase in luciferase activity in cell lysates reflects an increase in BMP-2 promoter activity. The extracts were assayed at an initial dilution of 100 μg/ml with ½ dilutions down to 0.2 μg/ml. BMP-2 promoter activity was measured by measuring the luciferase activity in cell extracts.

Assay [2] concerns BMP-2. Nature of the assay: Endogenous BMP-2 mRNA expression in hPOB-tert cells by RT-PCR. Particulars: 0.5 μg/ml, positive control. Format: cell-based, human. As for the experimental part:
The plants found positive for BMP-2 induction in example 1 were further tested in a human periosteal/preosteoblast cell line, hPOB-tert for their ability to induce the endogenous expression of BMP-2. This test in osteoblast cells confirmed the results shown in example 1.
[…] Total RNA was extracted with TRIzol Reagent (Gibco). 10 μg RNA were reverse transcribed using the 1st Strand cDNA Synthesis Kit (Boehringer). BMP-2 cDNA sequences were amplified for 35 cycles at an annealing temperature of 55° C. using specific oligonucleotide primers (5′: […]; 3′: […]). PCR products were separated by agarose gel electrophoresis and detected by ethidium bromide staining. Quantification was performed using NIH Image Software and normalizing results with Actin as house-keeping gene.

Take `O=c1c(-c2ccc(O)cc2)coc2cc(O)ccc12` [daidzein]: the “stimulation of BMP-2 (promoter activity)” value in assay [1] was “stimulated BMP-2”.
With `O=c1c(-c2ccc(O)cc2)coc2cc(O)cc(O)c12` [genistein], the “stimulation of BMP-2 (promoter activity)” value in assay [1] is reported as “stimulated BMP-2”.
Regarding `CC[C@H](C)C(=O)O[C@H]1C[C@@H](C)C=C2C=C[C@H](C)[C@H](CC[C@@H]3C[C@@H](O)CC(=O)O3)[C@H]21` [lovastatin], the “induction of BMP-2” value in assay [2] stood at 2.5 fold.
